Among the data in patent publication US12624018B1, “Inhibitors of RIPK2 and medical uses thereof” (Odyssey Therapeutics, Inc., priority 2022, dated 2026) are IC50 values, retold here.

In one assay the target is T1, RIPK2 enzyme (Homo sapiens, UniProt O43353).
T1 construct: purchased Carna 09-128
In words: RIPK2 inhibition (ADP-Glo Kinase Assay). The assay is classed as biochemical. To be noted: RIPK2 5 nM, ATP 150 μM, MBP substrate, read-out: RIPK2 IC50. The method, boiled down:
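Human RIPK2 (5 nM) preincubated with compound 30 min at room temperature in 50 mM HEPES pH 7.5, 10 mM MgCl2, 2 mM DTT, 1 mM EGTA, 0.01% Brij-35, 0.05% BSA; native swine MBP as substrate. ADP formed quantified by ADP-Glo luminescence; percent inhibition relative to DMSO and no-enzyme controls.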
(In general: In ADP-Glo the light output rises with the ADP produced.)

The test system of another assay is human NOD2 signaling. In words: Inhibition of human NOD2 signaling in HEK-Blue-hNOD2 cells (L18-MDP stimulated, SEAP reporter). The assay is classed as cell-based. To be noted: NOD2 ligand stimulation, SEAP reporter, read-out: hNOD2 IC50. The procedure, abridged:
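HEK-Blue-hNOD2 cells (HEK293 with NOD2 and SEAP reporter), 12500/well, treated with 10-point 3-fold compound dilutions plus L18-MDP 0.5 ng/mL final, 24 h at 37 °C. Supernatant SEAP read with QUANTI-Blue after 3 h at 620 nm; IC50 by 4-parameter fit vs DMSO±L18-MDP controls.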

Assay [1] deals with T2, RIPK2 and XIAP protein-protein interaction (Homo sapiens, UniProt O43353).
T2 construct: the N-terminus of full-length RIPK2 was appended with the HaloTag fusion protein; expressed in transfected cells; host or cells: HEK293T
The assay is described as follows: Inhibition of the interaction of RIPK2 with XIAP (NanoBRET in HEK293T cells). The assay is classed as cell-based. Particulars: RIPK2 HaloTag / XIAP NanoLuc, read-out: NanoBRET Scaffolding IC50. The source says:
An assay measuring the RIPK2 and XIAP protein-protein interaction was generated using the NanoBRET protein:protein interaction system (Promega) which measures the energy transfer from a bioluminescent protein donor (NanoLuc fusion protein) to a fluorescent protein acceptor (Halotag fusion protein). In this assay, the C-terminus of full-length XIAP was appended with the NanoLuc fusion protein and the N-terminus of full-length RIPK2 was appended with the HaloTag fusion protein. Assay medium consisted of Opti-MEM I reduced serum medium with no phenol red plus 4% heat inactivated FBS. Transfection reagents were combined in a microfuge tube as follows: 400 μL of assay medium, 8 μL of vector with N-terminus of RIPK2 HaloTag fusion protein (vector concentration at 1 μg/μL), 0.8 μL of vector with C-terminus of XIAP NanoLuc fusion protein (vector concentration at 1 μg/μL), and 24 μL of FuGENE HD transfection reagent (Promega, catalogue number E2312). […] Test compounds were prepared into a 10 mM DMSO solution and were serially diluted into 10 points using a 3-fold dilution in a 384 well plate using a TECAN EV0200.
Method: HEK293T cells were transfected with the RIPK2 HaloTag fusion and XIAP NanoLuc fusion vectors in suspension. […] Transfection reagents were pre-mixed and incubated at room temperature for 30 minutes. Then the total transfection reagent mixture was added dropwise to the 16 mL cell suspension and mixed gently. 40 μL of the cells and transfection reagent suspension was plated into a white 384 well plate and incubated at 37° C. in a CO2 incubator for 24 hours. […] Lastly, a 3× solution of NanoBRET Nano-Glo substrate in Opti-MEM I reduced serum media (no phenol red; 20 μL total volume) was added to each well and incubated for 2-3 minutes at room temperature. The plate was then measured using 460 nm filter (donor emission) and 618 nm filter (acceptor emission) in an EnVision multimode plate reader (PerkinElmer). The NanoBRET ratio values were determined by dividing the acceptor emission value by the donor emission value for each sample.

The mark [2] stands for this setting: Homo sapiens, HEK-Blue hNOD2, HEK-Blue-hNOD2 cells.

Read-outs that look alike come from different tables or passages of the source.

T2 sequence (O43353 whole entry, the tested form may be a part): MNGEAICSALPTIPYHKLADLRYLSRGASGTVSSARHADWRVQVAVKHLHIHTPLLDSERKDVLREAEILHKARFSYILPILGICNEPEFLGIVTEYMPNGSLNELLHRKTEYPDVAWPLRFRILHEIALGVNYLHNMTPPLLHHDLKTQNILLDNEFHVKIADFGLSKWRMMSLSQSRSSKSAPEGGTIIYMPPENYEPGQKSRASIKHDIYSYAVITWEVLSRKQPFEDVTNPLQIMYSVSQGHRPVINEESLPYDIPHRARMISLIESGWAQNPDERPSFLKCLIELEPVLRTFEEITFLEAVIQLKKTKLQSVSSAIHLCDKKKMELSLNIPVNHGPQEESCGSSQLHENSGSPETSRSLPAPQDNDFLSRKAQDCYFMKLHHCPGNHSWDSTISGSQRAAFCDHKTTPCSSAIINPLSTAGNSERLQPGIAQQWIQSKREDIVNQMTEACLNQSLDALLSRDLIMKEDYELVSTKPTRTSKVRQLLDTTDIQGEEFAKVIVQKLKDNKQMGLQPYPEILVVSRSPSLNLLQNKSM
T1 sequence (O43353 1-299 limits assumed): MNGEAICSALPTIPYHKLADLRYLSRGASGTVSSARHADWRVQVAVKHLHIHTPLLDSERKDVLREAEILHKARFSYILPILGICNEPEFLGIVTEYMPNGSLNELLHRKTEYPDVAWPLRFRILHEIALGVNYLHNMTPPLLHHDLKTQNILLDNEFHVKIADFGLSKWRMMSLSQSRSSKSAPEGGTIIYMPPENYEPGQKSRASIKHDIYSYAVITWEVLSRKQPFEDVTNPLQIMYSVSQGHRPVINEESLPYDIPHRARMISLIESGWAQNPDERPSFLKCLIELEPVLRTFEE

As for `Cc1cc(CC(=O)Nc2cnn(C(C)(C)C)c2)c(F)cc1Oc1ccnc2ccc(S(=N)(=O)C3CC3)cc12` (single isomer, unassigned) [Compound 466, N-(1-(tert-butyl)-1H-pyrazol-4-yl)-2-(4-((6-(cyclopropane-sulfonimidoyl)quinolin-4-yl)oxy)-2-fluoro-5-methylphenyl) acetamide], the figures for the IC50 (at RIPK2 enzyme; in the assay on human NOD2 signaling (setting [2]); in assay [1]) were less than 2.5 nM, 2.5 nM and 48 nM, respectively.
Turning to `Cc1cc(CC(=O)Nc2cnn(C(C)(C)C)c2)c(F)cc1Oc1ccnc2ccc(S(=N)(=O)C3CC3)cc12` (single isomer, unassigned) [Compound 467, N-(1-(tert-butyl)-1H-pyrazol-4-yl)-2-(4-((6-(cyclopropane-sulfonimidoyl)quinolin-4-yl)oxy)-2-fluoro-5-methylphenyl) acetamide], the values for the IC50 (on RIPK2 enzyme; in the assay on human NOD2 signaling (HEK-Blue-hNOD2 cells); in assay [1]) were less than 2.5 nM, 1.7 nM and 30.2 nM, respectively.
Take `[2H]C([2H])([2H])NC(=O)c1ccc2nccc(Oc3cc(F)c(CC(=O)Nc4cnn(C56CC(C5)C6)c4)cc3C([2H])([2H])[2H])c2c1` (single isomer, unassigned) [Compound 512, 4-(4-(2-((1-(bicyclo[1.1.1]pentan-1-yl)-1H-pyrazol-4-yl)amino)-2-oxoethyl)-5-fluoro-2-(methyl-d3)phenoxy)-N-(methyl-d3)quinoline-6-carboxamide]: the IC50 is less than 2.5 nM at RIPK2 enzyme, 2.4 nM in the assay on human NOD2 signaling (setting [2]) and 57.6 nM in assay [1].
Take `Cc1cc(CC(=O)Nc2cnn(C34CC(C3)C4)c2)ccc1Oc1ccnc2ccc(S(=N)(=O)C3CC3)cc12` (single isomer, unassigned) [Compound 529, N-(1-(bicyclo[1.1.1]pentan-1-yl)-1H-pyrazol-4-yl)-2-(4-((6-(cyclopropanesul-fonimidoyl)quinolin-4-yl)oxy)-3-methylphenyl) acetamide]: the values for the IC50 (on RIPK2 enzyme; with human NOD2 signaling (setting [2]); in assay [1]) were less than 2.5 nM, 14.3 nM and 75 nM, respectively.
Consider `Cc1cc(CC(=O)Nc2cnn(C34CC(C3)C4)c2)ccc1Oc1ccnc2ccc(S(=N)(=O)C3CC3)cc12` (single isomer, unassigned) [Compound 530, N-(1-(bicyclo[1.1.1]pentan-1-yl)-1H-pyrazol-4-yl)-2-(4-((6-(cyclopropanesul-fonimidoyl)quinolin-4-yl)oxy)-3-methylphenyl) acetamide], for which the IC50 was less than 2.5 nM on RIPK2 enzyme, 21.5 nM in the assay with human NOD2 signaling (HEK-Blue-hNOD2 cells) and 94.3 nM in assay [1].
Take `Cc1cc(CC(=O)Nc2cnn(C(C)(C)C)c2)ccc1Oc1ccnc2ccc(S(=N)(=O)C(C)C)cc12` (single isomer, unassigned) [Compound 547, N-(1-(tert-butyl)-1H-pyrazol-4-yl)-2-(3-methyl-4-((6-(propan-2-ylsulfonimidoyl)quinolin-4-yl)oxy)phenyl) acetamide]: the IC50 is less than 2.5 nM on RIPK2 enzyme, 1.3 nM in the assay on human NOD2 signaling (setting [2]) and 153 nM in assay [1].
`Cc1cc(CC(=O)Nc2cnn(C(C)(C)C)c2)ccc1Oc1ccnc2ccc(S(=N)(=O)C(C)C)cc12` (single isomer, unassigned) [Compound 548, N-(1-(tert-butyl)-1H-pyrazol-4-yl)-2-(3-methyl-4-((6-(propan-2-ylsulfonimidoyl)quinolin-4-yl)oxy)phenyl) acetamide]: the IC50 was less than 2.5 nM on RIPK2 enzyme, 0.9 nM in the assay on human NOD2 signaling (HEK-Blue-hNOD2 cells) and 108 nM in assay [1].
For the compound `Cc1cc(CC(=O)Nc2cnn(C(C)(C)C)c2)ccc1Oc1ccnc2ccc(S(=N)(=O)C3CCC3)cc12` (single isomer, unassigned) [Compound 551, N-(1-(tert-butyl)-1H-pyrazol-4-yl)-2-(4-((6-(cyclobutanesulf-onimidoyl)quinolin-4-yl)oxy)-3-methylphenyl) acetamide], the IC50 is less than 2.5 nM at RIPK2 enzyme, 1.7 nM with human NOD2 signaling (setting [2]) and 87.1 nM in assay [1].
Regarding `Cc1cc(CC(=O)Nc2cnn(C(C)(C)C)c2)ccc1Oc1ccnc2ccc(S(=N)(=O)C3CCC3)cc12` (single isomer, unassigned) [Compound 552, N-(1-(tert-butyl)-1H-pyrazol-4-yl)-2-(4-((6-(cyclobutane-sulfonimidoyl)quinolin-4-yl)oxy)-3-methylphenyl) acetamide], the IC50 is less than 2.5 nM at RIPK2 enzyme, 1.7 nM in the assay with human NOD2 signaling (HEK-Blue-hNOD2 cells) and 60.9 nM in assay [1].
On to `[2H]C([2H])([2H])NC(=O)c1ccc2nccc(Oc3cc(F)c(CC(=O)Nc4cnn(C(C)(C)C)c4)c(F)c3C)c2c1` (single isomer, unassigned) [Compound 555, 4-(4-(2-((1-(tert-butyl)-1H-pyrazol-4-yl)amino)-2-oxoethyl)-3,5-difluoro-2-methylphenoxy)-N-(methyl-d3)quinoline-6-carboxamide], for which the IC50 was less than 2.5 nM at RIPK2 enzyme, 0.1 nM in the assay with human NOD2 signaling (setting [2]) and 7.3 nM in assay [1].
Taken in the same sequence, the figures for `[2H]C([2H])([2H])NC(=O)c1ccc2nccc(Oc3cc(F)c(CC(=O)Nc4cnn(C56CC(C5)C6)c4)cc3C)c2c1` (single isomer, unassigned) [Compound 563, 4-(4-(2-((1-(bicyclo[1.1.1]pentan-1-yl)-1H-pyrazol-4-yl)amino)-2-oxoethyl)-5-fluoro-2-methylphenoxy)-N-(methyl-d3)quinoline-6-carboxamide] were less than 2.5 nM, 1.9 nM and 176 nM.
On to `CC(C)(C)n1cc(NC(=O)Cc2cc(Cl)c(Oc3ccnc4ccc(S(=O)(=O)C5CC5)cc34)cc2F)cn1` [Compound 464, N-(1-(tert-butyl)-1H-pyrazol-4-yl)-2-(5-chloro-4-((6-(cyclopropylsulfonyl)quinolin-4-yl)oxy)-2-fluorophenyl)acetamide], for which the IC50 on RIPK2 enzyme is less than 2.5 nM; in the assay on human NOD2 signaling (setting [2]), 0.5 nM; in assay [1], 7.5 nM.
Regarding `CNC(=O)c1ccc2nccc(Oc3c(C)cc(CC(=O)Nc4cnn(C(C)(C)C)c4)cc3F)c2c1` [Compound 469, 4-(4-(2-((1-(tert-butyl)-1H-pyrazol-4-yl)amino)-2-oxoethyl)-2-fluoro-6-methylphenoxy)-N-methylquinoline-6-carboxamide], the IC50 on RIPK2 enzyme is less than 2.5 nM; with human NOD2 signaling (setting [2]), 1.6 nM; in assay [1], 6.6 nM.
In the same order, the values of `Cc1cc(CC(=O)Nc2cnn(C(C)(C)C)c2)c(F)cc1Oc1ccnc2ccc(C(=O)N3[C@H](C)CNC[C@@H]3C)cc12` [Compound 470, N-(1-(tert-butyl)-1H-pyrazol-4-yl)-2-(4-((6-((2R,6S)-2,6-dimethylpiperazine-1-carbonyl)quinolin-4-yl)oxy)-2-fluoro-5-methylphenyl)acetamide] are less than 2.5 nM, 1.1 nM and 13.1 nM.
Taken in the same sequence, the figures for `Cc1cc(CC(=O)Nc2cnn(C(C)(C)C)c2)c(F)cc1Oc1ccnc2ccc(C(=O)N3C[C@@H]4C[C@H]3CN4)cc12` [Compound 471, 2-(4-((6-((1S,4S)-2,5-diazabicyclo[2.2.1]heptane-2-carbonyl)quinolin-4-yl)oxy)-2-fluoro-5-methylphenyl)-N-(1-(tert-butyl)-1H-pyrazol-4-yl)acetamide] were less than 2.5 nM, 9.9 nM and 1020 nM.
Taken in the same sequence, the figures for `Cc1cc(CC(=O)Nc2cnn(C(C)(C)C)c2)cc(Cl)c1Oc1ccnc2ccc(S(C)(=O)=O)cc12` [Compound 473, N-(1-(tert-butyl)-1H-pyrazol-4-yl)-2-(3-chloro-5-methyl-4-((6-(methylsulfonyl)quinolin-4-yl)oxy)phenyl)acetamide] were less than 2.5 nM, 7.8 nM and 171 nM.
For `Cc1cc(CC(=O)Nc2cnn(C(C)(C)C)c2)c(Cl)cc1Oc1ccnc2ccc(S(C)(=O)=O)cc12` [Compound 474, N-(1-(tert-butyl)-1H-pyrazol-4-yl)-2-(2-chloro-5-methyl-4-((6-(methylsulfonyl)quinolin-4-yl)oxy)phenyl)acetamide], the IC50 on RIPK2 enzyme worked out at 8.1 nM; in the assay on human NOD2 signaling (setting [2]), 95.6 nM; in assay [1], 621 nM.
